Data published in patent US8748383B2, “Method for treating bone related diseases and calcium disorders” (Novartis AG, priority 2003, dated 2014).

Assays:
[1] = Water solubility of delivery agent
[2] = in vivo

| Compound | water solubility [1] | absorbed by the gastro-intestinal tract [2] |
| --- | --- | --- |
| O=C(O)CCCCCCCNC(=O)c1cc(Cl)ccc1O [5 CNAC, N-(5-chlorosalicyloyl)-8-aminocaprylic acid] | very water soluble | – |
| O=C(O)CCCCCCCCCNC(=O)c1ccccc1O [SNAD, N-(10-[2-hydroxybenzoyl]amino)decanoic acid] | – | greater than 90% |
